Laboratory results published in patent publication US20070275990A1, “Heterocyclic Spiro Compound” (ONO PHARMACEUTICAL CO., LTD., priority 2003, published 2007).

Legend:
MBR = target: T1, MBR (Rattus norvegicus, UniProt P16257); experiment: Receptor binding experiment ([3H]PK11195 competition binding); settings: rat brain membrane preparation, [3H]PK11195 0.5 or 1 nmol/L; Ki calculated by Cheng and Prusoff formula from KD value and IC50
T1 construct: from tissue; host or cells: whole brain without cerebellum of male Wistar rats, crude membrane preparation
Experimental: The affinity of the compounds in the present invention to MBR was determined using rat brain membrane preparation. In addition, the measurement in the present invention was improved the accuracy of measurement and the sensitivity of measurement for evaluating the compounds in the present invention as follows. After male Wister rats were decapitated to extirpate the whole brain and cerebellums were removed. They were homogenized in ice-cold 50 mmol/L Tris-HCL buffer solution (pH 7.4), centrifuged and the obtained pellets were washed. The pellets resuspended and adjusted to about 1 mg/mL were used as rat brain membrane preparations for binding assay. The binding assay were experimented using [^3H]PK11195 as a MBR selective ligand. […]
To determine the amount of total binding in saturation binding experiment, membrane preparations, various concentrations of [^3H]PK11195, final concentration: 0.5 vol % dimethylsulfoxide (DMSO) and 50 mmol/L Tris-HCL buffer solution (pH 7.4) were mixed (total volume 200 μL) and were incubated for 1 hour at room temperature. […] The filter was dried and then the radioactivity on the filter was measured by liquid scintillation counter. The data obtained by the binding experiments were Scatchard analyzed using analysis software, KELL (Ver. 6, BIOSOFT) and the dissociation constant (KD value) was determined. […]

male Wistar rats = experiment: Evaluation of anti-stress effects (defecation under psychological stress); type: in vivo, rat; settings: 10 mg/kg orally 30 minutes before stressor load; counted 1 hour later; media treated group average 8.7 feces
Experimental: Psychological stress was loaded to male Wistar rats (Brain research, 641, 21-28, 1994). Water was stored up to the depth of about 10 cm in a container where the platform was set at the center. A stressor began to load to rats 30 minutes after the vehicle or the compound in the present invention (the compound of Example 15(39)) were orally administered by dosage of 10 mg/kg. The number of defecation was counted 1 hour later (10 per each group). Rats without administration and load of stressor rarely defecated for 1 hour. In contrast, remarkable defecation was admitted in media treated group (average 8.7 feces) loaded by stressor. […] The results clarified that the compounds in the present invention had anti-stress effects.

Q: How did the Ki (MBR) turn out when `O=C1N(c2ccccc2)CCC12CCCN(S(=O)(=O)c1ccccc1)C2` (stereo not drawn) [Example 7, 2-phenyl-7-(phenylsulfonyl)-2,7-diazaspiro[4.5]decan-1-one] was run?
A: Its Ki is 230 nM.

Q: With `COc1ccc(S(=O)(=O)N2CCCC3(CCN(c4ccc(Cl)cc4)C3=O)C2)cc1` (stereo not drawn) [Example 15(39), 2-(4-chlorophenyl)-7-[(4-methoxyphenyl)sulfonyl]-2,7-diazaspiro[4.5]decan-1-one] as the compound, how does the Ki (MBR) read?
A: Its Ki is 40 nM.

Q: And the “number of defecation (average)” value (male Wistar rats)?
A: The value was 5.8 feces.
